Test results published in ChEMBL document CHEMBL5537109, “Natural products as potential lead compounds to develop new antiviral drugs over the past decade” (Eur J Med Chem, 2023).
In brackets after ≈: the same amount, converted by molar mass.

Legend:
[1] = test system: Human immunodeficiency virus 1; test: Antiviral activity against HIV-1 3B harboring reverse transcriptase infected in human MT4 cells assessed as protection against virus-induced cytopathic effect incubated for 5 days by MTT assay; format: functional, organism-based; conditions: Human immunodeficiency virus 1, 3B, MT4, 120 h
[2] = Cytotoxicity against human C8166 cells assessed as inhibition of cell growth by MTT assay; format: toxicity, cell-based
[3] = test system: Human immunodeficiency virus 1; test: Antiviral activity against HIV-1 3B harboring reverse transcriptase infected in human C8166 cells assessed as protection against virus-induced cytopathic effect incubated for 5 days by MTT assay; format: functional, organism-based; conditions: Human immunodeficiency virus 1, 3B, C8166, 120 h
[4] = test system: Human immunodeficiency virus 1; test: Antiviral activity against HIV-1 3B infected in human MT4 cells assessed as inhibition of viral replication incubated for 5 days by MTT assay; format: functional, organism-based; conditions: Human immunodeficiency virus 1, 3B, MT4, 120 h
[5] = Cytotoxicity against human C8166 cells assessed as inhibition of cell growth incubated for 48 hrs by MTT assay; format: toxicity, cell-based
[6] = molecular target: Human immunodeficiency virus type 1 reverse transcriptase (Human immunodeficiency virus 1, UniProt Q72547); test: Inhibition of HIV1 reverse transcriptase
[7] = test system: Human immunodeficiency virus 1; test: Anti-HIV activity against HIV-1 IIIB infected in human C8166 cells assessed as inhibition of virus-induced cytopathic effect by MTT assay; format: functional, organism-based; conditions: Human immunodeficiency virus 1, IIIB
Influenza A virus [8] = test: Antiviral activity against influenza A virus H5N1 infected in dog MDCK cells assessed as viral growth inhibition; format: functional, organism-based
Influenza A virus [9] = test: Antiviral activity against influenza A virus H1N1(A/PR/8/34) infected in MDCK cells assessed as inhibition of cytopathic effect incubated for 48 hrs by MTT assay; format: functional, organism-based
[10] = Inhibition of Influenza A virus A/California/04/2009 (H1N1) N-terminal his tagged domain of PA endonuclease expressed in Escherichia coli BL21 (DE3) cells
Influenza A virus [11] = test: Antiviral activity against influenza A virus A/Hong Kong/1/68 (HK1, H3N2) infected in dog MDCK cells assessed as cytopathic effect; format: functional, organism-based
[12] = Cytotoxicity against MDCK cells assessed as inhibition of cell growth incubated for 48 hrs by MTT assay; format: toxicity, cell-based, Canis lupus familiaris; conditions: dog
Human alphaherpesvirus 1 = test: Antiviral activity against HSV-1 assessed as inhibition of viral growth; format: functional, organism-based
[13] = test system: Human immunodeficiency virus 1; test: Antiviral activity against HIV-1 harboring reverse transcriptase infected in human MT4 cells assessed as reduction in virus-induced cytopathic effect; format: functional, organism-based; conditions: Human immunodeficiency virus 1, MT4
RAW264.7 = test: Cytotoxicity against mouse RAW264.7 cells assessed as reduction in cell viability incubated for 24 hrs by CCK-8 method; format: functional

C=CC(C)(C)c1cc2cc(CC(=O)C(C)C)c(OC)cc2oc1=O
EC50 [1]: 0.12 µM
CC50 [2]: > 200 µM

COc1cc2oc(CO)cc(=O)c2c(O)c1CCC(C)(C)O
CC50 [2]: > 200 µM
EC50 [3]: 0.09 µM

C=CC(C)(C)c1cc2cc(C[C@@H](O)C(C)(C)O)c(O)cc2oc1=O
CC50 [2]: > 200 µM
EC50 [3]: 0.68 µM

C=CC(C)(C)c1cc2cc(C[C@@H](OCC)C(C)(C)O)c(OC)cc2oc1=O
EC50 [1]: 0.42 µM
CC50 [2]: > 200 µM

CC(C)=CCc1c(O)cc2oc(CO)cc(=O)c2c1O
CC50 [2]: > 200 µM
EC50 [3]: 0.67 µM

COc1cc2oc(CO)cc(=O)c2c(OC)c1CC=C(C)C
CC50 [2]: > 200 µM
EC50 [3]: 1.32 µM

C=CC(CO)[C@@H]1C[C@H]2c3[nH]c4ccccc4c3CCN2C(=O)[C@H]1CO (stereo partly drawn)
EC50 [4]: 0.06 µM

COc1c2c(cc3oc(CO)cc(=O)c13)OC(C)(C)C=C2
CC50 [2]: > 200 µM
EC50 [3]: 9.72 µM

C=CC(C)(C)c1cc2cc3c(cc2oc1=O)O[C@H](C(C)(C)O)[C@H]3O
CC50 [2]: > 200 µM
EC50 [3]: 0.17 µM

C=CC(CO)[C@@H]1C[C@H]2c3[nH]c4ccccc4c3CCN2C(=O)[C@@H]1CO (stereo partly drawn)
EC50 [4]: 0.23 µM
CC50 at 48 h [5]: > 200 µM

COc1cc2oc(CO)cc(=O)c2c(O)c1CC=C(C)C
CC50 [2]: > 200 µM
EC50 [3]: 0.96 µM

C=CC(C)(C)c1cc2cc(C[C@@H](OC)C(C)(C)O)c(OC)cc2oc1=O
EC50 [1]: 0.33 µM
CC50 [2]: > 200 µM

COc1cc(C)c(Cc2cc3c([nH]c4ccccc43)c3c2OC(C)(C)C=C3)c2c1[nH]c1ccccc12
CC50 at 48 h [5]: > 200 µM
IC50 [6]: 0.0186 µM

COc1cccc2c1-c1c3c(c(OC)c4cc[n+]([O-])c(c14)C2=O)OCO3
CC50 at 48 h [5]: 56.6 µM
EC50 [7]: 2.18 µM

O=C(OC[C@H]1O[C@@H](Oc2ccc(O)cc2C(=O)O)[C@H](OC(=O)c2cc(O)c(O)c(O)c2)[C@@H](O)[C@@H]1O)c1cc(O)c(O)c(O)c1
IC50 (Influenza A virus [8]): 21.1 µM
EC50 (Influenza A virus [9]): 32.1 µM
IC50 [10]: 27.6 µM
EC50 (Influenza A virus [11]): 31.2 µM
CC50 at 48 h [12]: 835 µM

COc1cc(OC)c([N+](=O)[O-])c2c1-c1c3c(c(OC)c4c1[C@@H](C2)NCC4)OCO3
CC50 at 48 h [5]: 28.7 µM
EC50 [7]: 1.93 µM

C/C=C1/C[N+]23CCc4c([nH]c5ccccc45)[C@@H]2C[C@H]1C3C(=O)[O-] (stereo partly drawn)
EC50 (Human alphaherpesvirus 1): 1.09 µg/mL (≈ 3.53 µM)

C[C@H]1CC(=O)[C@@H]2CCCN(C)CCCC(=O)/C(=N\O)C[C@@H]2C1
CC50 at 48 h [5]: > 200 µM
EC50 [7]: 52.9 µg/mL

CCCCCC(O)/C=C/C=C\CCCCCC[C@@]1(O)C[C@H](C(=O)OC)[C@H](C(C)=O)O1 (stereo partly drawn)
CC50 [2]: > 200 µM
EC50 [3]: 0.08 µM

C=C1[C@H]2O[C@@H](OC)[C@H]3[C@@H]1[C@@H]1O[C@@H]1[C@@]3(CO)O2
IC50 [6]: 7.23 µM
CC50 [2]: > 200 µM

C=C(C)[C@@]1(OC(=O)c2ccccc2)[C@H](OC(C)=O)[C@@H]2[C@H](OC(C)=O)[C@@]3(C)O[C@@]4([C@@H]3OC(C)=O)[C@@H](OC(=O)c3ccccc3)[C@@H](C)C[C@H]4[C@@]2(O)[C@H](C)[C@@H]1OC(C)=O
EC50 [13]: 0.18 µM
CC50 (RAW264.7): > 200 µM
